Results reported in the NIST ThermoML archive (doi:10.1016/j.jct.2017.09.012).
± gives the expanded uncertainty stated by the source.

Test: osmotic coefficient (dimensionless); mn = molality of the nth substance listed, in mol/kg
Conditions: 101 kPa, Liquid, isopiestic method

O=S(=O)([O-])[O-].[Zn+2] [zinc sulfate] + O
osmotic coefficient (288.15 K, m1 = 3.567): 1.09 ± 0.03
osmotic coefficient (288.15 K, m1 = 3.787): 1.19 ± 0.033
osmotic coefficient (288.15 K, m1 = 3.997): 1.29 ± 0.03
osmotic coefficient (298.15 K, m1 = 3.223): 0.935 ± 0.009
osmotic coefficient (298.15 K, m1 = 3.836): 1.16 ± 0.013
osmotic coefficient (308.15 K, m1 = 3.614): 1.019 ± 0.005
osmotic coefficient (308.15 K, m1 = 3.962): 1.144 ± 0.009
osmotic coefficient (308.15 K, m1 = 4.295): 1.27 ± 0.015
osmotic coefficient (313.15 K, m1 = 4.014): 1.133 ± 0.007
osmotic coefficient (313.15 K, m1 = 4.25): 1.217 ± 0.009
osmotic coefficient (313.15 K, m1 = 4.47): 1.302 ± 0.013
